Results from patent publication US20260226493A1, “HERBICIDE RESISTANT PLANTS” (SYNGENTA CROP PROTECTION AG, priority 2023, published 2026).
Where “and” joins values, the source holds several entries; their conditions need not be identical. Identical values can stand only once.

Experiments:
[1] = test system: D4604 (Arabidopsis thaliana BIO3-BIO1 W392S) containing tobacco plants; assay: Visual herbicide damage score on transgenic tobacco D4604 (pCMP AtBioDA W392S); assay type: in vivo; settings: 600 gai/ha, each table row is one D4604 transgenic plant
Source text: (§1) Populations of transgenic tobacco comprising 20-30 transgenic events per plant transformation constructs were generated as described in Example 1. These lines were clonally propagated and 1 clone per event was sprayed with 600 g ai/ha compound L or A+0.2% Genapol X080 with a spray volume of 200 L/Ha (“g ai/ha” refers to grams of active compound per hectare).
(§2) Herbicidal damage was visually assessed across the population and a herbicide damage score given at 7, 14 and 21 days. A score of 0 indicates no visible damage or stunting whereas a score of 100 indicates a complete death of the plant. 20 transgenic events (i.e. individual transgenic plants) from each GM tobacco line were transplanted to soil 1 week prior to spraying with BIO3-BIO1inhibiting compounds. WT tobacco was included as a control.
(§3) To determine if overexpression of variants detailed in Example 7 confer resistance to BIO3-BIO1 inhibiting compounds when expressed in plants, GM tobacco lines were produced using the methods in Example 1 and tested with BIO3-BIO1 inhibiting compounds.
(§4) Transgenic tobacco plants expressing the Arabidopsis thaliana BIO3-BIO1 variants C388D (SEQ ID NO:26), P421L(SEQ ID NO:41), F348C (SEQ ID NO:28), G700S (SEQ ID NO:39), W392S (SEQ ID NO:70) and the Zea mays BIO3-BIO1 variant C372D (SEQ ID NO:324). Populations of transgenic tobacco were sprayed and assessed as in Example 2

[2] = test system: Wildtype Samsun tobacco; assay: Visual herbicide damage score on wild-type tobacco plants after spraying; assay type: in vivo; settings: for percentage of damage: 600 gai/ha, one WT plant
Source text: as §1
as §2, with “A” for “Herbicidal damage was visually assessed across the population and a herbicide damage score given at 7, 14 and 21 days. A”, “control. […]” for “control.”

[3] = test system: D4586 (Zea mays BIO3-BIO1 C372D) containing tobacco plants; assay: Visual herbicide damage score on transgenic tobacco D4586 (pCMP ZmBioDA C372D); assay type: in vivo; settings: 600 gai/ha; 7 DAT; each table row is one D4586 transgenic plant
Source text: as §1, §2, §3, §4

[4] = target: T1, Arabidopsis thaliana BioDA variant enzymes (Arabidopsis thaliana, UniProt B0F481, P421L); assay: biochemical
T1 construct: with the predicted N-terminal mitochondrial transit peptide removed; 6xHis-tag (N); thrombin cleavage site (N); made in house; host or cells: E. coli BL21 (DE3) bioA
T1 sequence (B0F481 24-833 P421L): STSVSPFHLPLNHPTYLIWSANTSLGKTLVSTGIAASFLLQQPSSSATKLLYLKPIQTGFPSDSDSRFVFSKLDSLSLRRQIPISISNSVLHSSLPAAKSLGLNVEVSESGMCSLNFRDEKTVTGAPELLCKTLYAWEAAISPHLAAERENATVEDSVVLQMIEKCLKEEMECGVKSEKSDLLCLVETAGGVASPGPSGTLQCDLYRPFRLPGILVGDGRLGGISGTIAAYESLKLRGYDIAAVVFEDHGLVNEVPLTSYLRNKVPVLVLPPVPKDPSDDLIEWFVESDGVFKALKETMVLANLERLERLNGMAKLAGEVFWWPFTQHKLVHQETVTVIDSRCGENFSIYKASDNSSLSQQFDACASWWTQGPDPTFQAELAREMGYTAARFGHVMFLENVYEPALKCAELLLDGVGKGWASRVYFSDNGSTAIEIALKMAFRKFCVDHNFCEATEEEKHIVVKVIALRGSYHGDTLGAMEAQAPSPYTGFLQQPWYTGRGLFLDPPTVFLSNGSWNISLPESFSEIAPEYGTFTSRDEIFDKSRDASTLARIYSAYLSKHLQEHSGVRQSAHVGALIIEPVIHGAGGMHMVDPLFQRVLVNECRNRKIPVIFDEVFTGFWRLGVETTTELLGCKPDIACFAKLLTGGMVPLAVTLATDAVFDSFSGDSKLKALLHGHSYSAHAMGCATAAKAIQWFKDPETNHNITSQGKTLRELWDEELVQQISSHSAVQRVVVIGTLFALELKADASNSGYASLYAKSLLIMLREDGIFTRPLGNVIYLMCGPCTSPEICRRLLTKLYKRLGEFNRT
Experimental: (§5) These plasmids were then expressed in E. coli BL21 (DE3) bioA with 50 μg/mL kanamycin and 25 μg/mL chloramphenicol selection. Overnight cultures grown at 37° C. were used to inoculate 8×500 mL AIM in shake flasks at a ratio of 1:100. Cultures were grown at 37° C., 200 rpm for 3.5 hours and then overnight at 20° C. Cells were harvested by centrifugation for 30 minutes at 10 000 g. Cells were stored at −80° C. until extraction. 30 g of cell pellet from was thawed in 120 mL of IMAC buffer A (20 mM HEPES pH7.5, 25 mM imidazole, 500 mM sodium chloride, 0.15 mM pyridoxal phosphate, 0.5 mM TCEP, 1× complete Protease Inhibitor Tablet (Roche)). The resuspension was passed through a cell disrupter at 18 000 PSI and centrifuged at 50 000 g for 25 minutes at 4° C. The His-tagged BIO3-BIO1 protein was purified from the extract supernatant on an AKTA avant chromatography system (Cytiva) using a HisTrap FF column and eluted in IMAC buffer B ((20 mM HEPES pH7.5, 500 mM imidazole, 500 mM sodium chloride, 0.15 mM pyridoxal phosphate, 0.5 mM TCEP) followed by SEC using a HiLoad 26/60 Superdex200 column in SEC buffer (25 mM HEPES pH7.5, 150 mM sodium chloride, 0.15 mM pyridoxal phosphate, 0.5 mM TCEP). Protein concentration was measured and calculated using the absorbance at 280 nm. Extracts were diluted 1 in 4 and 10 uL was analysed by SDS PAGE.
(§6) To measure BIO3-BIO1 mutant enzyme activity in the presence of herbicide, herbicides were incubated with 20 μL of enzyme mix (100 mM EPPS pH 8.6, 0.1 mM pyridoxal phosphate, 0.1 mg/mL BSA, 50 nM BIO3-BIO1 enzyme) for 10 minutes at 20° C. in a well of a 96-well half-area black plate, followed by the addition of 20 μL of substrate mix (final concentration of 100 mM EPPS pH 8.6, 0.1 mM pyridoxal phosphate, 0.1 mg/mL BSA, 100 μM spermidine, 20 μM KAPA, 100 mM NaCO3) and further incubation for 75 minutes at 20° C. The reaction was terminated by the addition of 50 μL of derivatisation mix (final concentration of 250 mM borate NaOH pH 9.4, 3.6 mM o-phthalaldehyde, 7 mM β-mercaptoethanol, 17% (v/v) ethanol, 3.6% (v/v) methanol). The fluorescent product produced by the reaction of DAPA with o-phthalaldehyde and 7 mM β-mercaptoethanol was measured at 470 nm after excitation at 410 nm.
(§7) For IC50 calculations, appropriate dose responses of compounds L, M, B, K and G were used. Calculated percentage inhibitions were then input into GraphPad Prism 7 and IC50s calculated using the non-linear regression (vs. normalised response) equation.

[5] = target: T2, Arabidopsis thaliana BioDA variant enzymes (Arabidopsis thaliana, UniProt B0F481, C388T); assay: biochemical
T2 construct: with the predicted N-terminal mitochondrial transit peptide removed; 6xHis-tag (N); thrombin cleavage site (N); made in house; host or cells: E. coli BL21 (DE3) bioA
T2 sequence (B0F481 24-833 C388T): as the sequence (B0F481 24-833 P421L) above, with C365T, L398P counted along it
Experimental: as §5, §6, §7

[6] = target: T3, Arabidopsis thaliana BioDA variant enzymes (Arabidopsis thaliana, UniProt B0F481, F348C); assay: biochemical
T3 construct: with the predicted N-terminal mitochondrial transit peptide removed; 6xHis-tag (N); thrombin cleavage site (N); made in house; host or cells: E. coli BL21 (DE3) bioA
T3 sequence (B0F481 24-833 F348C): as the sequence (B0F481 24-833 P421L) above, with F325C, L398P counted along it
Experimental: as §5, §6, §7

[7] = target: T4, Arabidopsis thaliana BioDA variant enzymes (Arabidopsis thaliana, UniProt B0F481, W391L); assay: biochemical
T4 construct: with the predicted N-terminal mitochondrial transit peptide removed; 6xHis-tag (N); thrombin cleavage site (N); made in house; host or cells: E. coli BL21 (DE3) bioA
T4 sequence (B0F481 24-833 W391L): as the sequence (B0F481 24-833 P421L) above, with W368L, L398P counted along it
Experimental: as §5, §6, §7

[8] = target: T5, Arabidopsis thaliana BioDA variant enzymes (Arabidopsis thaliana, UniProt B0F481, W392G); assay: biochemical
T5 construct: with the predicted N-terminal mitochondrial transit peptide removed; 6xHis-tag (N); thrombin cleavage site (N); made in house; host or cells: E. coli BL21 (DE3) bioA
T5 sequence (B0F481 24-833 W392G): as the sequence (B0F481 24-833 P421L) above, with W369G, L398P counted along it
Experimental: as §5, §6, §7

[9] = test system: D4585 (Arabidopsis thaliana BIO3-BIO1 P421L) containing tobacco plants; assay: Visual herbicide damage score on transgenic tobacco D4585 (pCMP AtBioDA P421L); assay type: in vivo; settings: 600 gai/ha; 21 DAT; one D4585 transgenic plant
Source text: as §1, §2, §3, §4

`CCn1c(Cn2ccc(C(F)(F)F)n2)cc(=O)c(C(=O)O)c1-c1ccc(Cl)c(Cl)c1` [Compound L, 2-(3,4-dichlorophenyl)-1-ethyl-4-oxo-6-[[3-(trifluoromethyl)pyrazol-1-yl]methyl]pyridine-3-carboxylic acid] was tested, and the percentage of damage ([1]; 14 DAT) was 70%, the percentage of damage ([1]; 21 DAT) was 80% and the percentage of damage ([2]; 7 DAT) was 55% and 40% and 45% and 50%. For the same compound, the percentage of damage ([2]; 14 DAT) was 80% (2×) and 85% and 75%, the percentage of damage ([2]; 21 DAT) was 90% and 75% and 85% and the “growth of representative wild type tobacco plant after treatment (photograph, FIG. 6)” value ([2]; compound L 600 gai/ha, 28 days post treatment, compared to Event 8307 (pBin TMV EcBioA) and Event 8402 (pBin TMV MTP EcBioA)) was “significantly stunted growth”. It also gave a percentage of damage [3] of 10%, an IC50 [4] of 0.687 µM and an IC50 [5] of 0.092 µM. For the same compound, the IC50 [6] was 77.6 µM, the IC50 [7] was 16.3 µM and the IC50 [8] was 17.7 µM.
In the case of `CCOC(=O)c1nn(-c2ccc3c(c2)OC(F)(F)C(F)(F)O3)c2cccc(C(C)=O)c2c1=O` [Compound A, ethyl 5-acetyl-4-oxo-1-(2,2,3,3-tetrafluoro-1,4-benzodioxin-6-yl)cinnoline-3-carboxylate], the percentage of damage [9] is reported as 5% and 0% and 2%.
